# Test results reported in patent US12366572B2, “Activation of bioluminescence by structural complementation” (Promega Corporation, priority 2013, dated 2025).
# Primed or numbered codes have the meaning given here. No end group written: not given here. *: point of attachment. Dabcyl′ = N-terminal Dabcyl quencher, CN(C)c1ccc(/N=N/c2ccc(C(=O)*)cc2)cc1
# How the values were obtained:
# BRD4/Histone H3.3 = BRD4/Histone H3.3 (Homo sapiens, UniProt O60885); experiment: Inhibition of NLpoly11S-BRD4 / Histone H3.3-NLpep114 interaction in HEK293T cells (Example 128)
# HELA cells = experiment: NLpep86-tagged firefly luciferase constructs in HELA cells detected with NLpoly11S reagent or Fluc activity (Example 141); format: cell-based; details: 48 hours after transfection
# Description: Validating the Use of Spontaneously Interacting NLpep86 as an Epitope Tag for Proteins Degraded by the Proteasome Experiments were conducted during development of embodiments of the present invention to validate the use of NLpep86 as a tag to monitor expression levels of proteins degraded by the proteasome. To do this, Nlpep86 was fused to firefly luciferase variants that were also fused to either one or more PEST, CL1 or ubiquitin sequences (pBC21, 22, 24-29). Each of these constructs is expected to undergo proteasome-mediated turnover to varying degrees following expression from a mutant CMV promoter (d1CMV).
# The constructs pBC21, 22, 24-29 and control constructs expressing untagged firefly luciferase or untagged firefly luciferase fused to a PEST sequence (ATG082 and ATG083) were transiently transfected into HELA cells plated at 10,000 cells per well in a 96-well plate using 100 μL of DMEM+10% FBS. […] Protein expression levels were quantified in replicate wells for each construct by detecting firefly luciferase activity or by adding a detection reagent containing NLpoly11S (purified NLpoly11S added to NanoGlo®).
# After a 48 hour incubation, 100 uL NanoGlo® […] reagent (90 ul of NLpoly11S in 50 ml of NanoGlo® assay reagent was added to each well and incubate for 3 minutes with shaking. Luminescence was then read on GloMax luminometer (0.5 sec/well).
# NLpoly11S [1] = experiment: Dark and quencher peptides: background signal from NLpoly11S (Example 153); format: biochemical; details: NLpoly11S in NanoGlo reagent, 5 min
# Description: A purified sample of NLpoly11S was diluted into NanoGlo reagent to give a final concentration of 2 uM. Pep86 is a high affinity luminogenic peptide and was used to induce maximum signal for NLpoly11S. Pep86 was prepared at 1 nM in PBS (pH 7.2) for a working solution. Dark peptide and quencher peptides (FIG. 180) were dissolved to 1 mM (or lower) in either PBS pH 7.2 or 150 mM NH4HCO3 and added in equal volume to the NanoGlo/NLpoly11S and then samples were read on a Tecan Infinite F500 reader using a 5 min time point.
# NLpoly 5P = experiment: Titration of NLpoly 5P with NLpep88-HT (Example 47); format: biochemical; details: serial dilutions of NLpep88-HT lysate
# NLpoly11S [2] = experiment: Binding of NLpoly11S to synthetic NLPep78/79 and N- or C-terminal HaloTag fusions (Examples 107, 108); details: E. coli lysates, NanoGlo + 100 uM Fz
# Description: (§1) Fusions of NLpep78-HaloTag (78-HT) and HaloTag-NLPep78 (HT-78) were quantitated, with a GST-HaloTag® fusion (GST-HT) as a control, by labeling E. coli lysates with the HaloTag-TMR® ligand, separated by SDS-PAGE, and scanned on Typhoon. A standard curve was then created using known concentrations of GST-HT standard, and band intensities of 78-HT and HT-78 were used to determine their concentrations.
# (§2) E. coli lysates containing NLpoly11S were diluted 1:107 into PBS pH 7+0.1% Prionex. Serial dilutions of 78-HT, HT-78, and synthetic NLpep78 were made in PBS pH 7+0.1% Prionex. 20 uL NLpoly11S and 20 μL of one of the NLPep were mixed and incubated at ambient temperature for 5 minutes. 40 uL NanoGlo® reagent (Promega Corporation)+100 uM Fz were added, and the samples incubates at ambient temperature for 5 min. Luminescence was measured on GlomaxMulti+ using 0.5 s integration. Data was fit to one-site, specific binding using GraphPad Prism to determine Bmax and Kd.
# as §1, with “NLpep79-HaloTag (79-HT)” for “NLpep78-HaloTag (78-HT)”, “HaloTag-NLPep79 (HT-79)” for “HaloTag-NLPep78 (HT-78)”, “79-HT” for “78-HT”, “HT-79” for “HT-78”
# as §2, with “79-HT, HT-79,” for “78-HT, HT-78,”, “NLpep79” for “NLpep78”
# [3] = system: circularly permuted Nluc (CP Nluc); experiment: Inhibition of circularly permuted NanoLuc luciferase by dark peptides (Example 138); format: biochemical; details: synthetic dark peptide dose-response, NanoGlo reagent, 5 min
# Description: Recombinant CP Nluc was prepared as a soluble fraction of an E. coli 5×-concentrated lysate (T7-promoter; overnight expression). A 10,000-fold dilution of the CP Nluc in Assay Buffer (PBS pH 7/0.01% Prionex/1 mM DTT/0.005% Tergitol) was used. Synthetically-derived dark peptides were prepared across a range of concentrations, also in the Assay Buffer. Reactions were set up using 30 μL of CP NLuc and 60 μL of Dark peptide and assayed by adding 90 μL NanoGlo® assay reagent (Promega Corporation). Luminescence was measured (5 min) on a Tecan Infinite F500 reader (100 ms integration). Three replicates were used for Dark peptide samples. Two replicates were used for buffer controls (acetic acid from peptide stocks).
# NLpoly11S and NLpep114 = experiment: Inhibition of NLpoly11S/NLpep114 binding by dark peptides (Examples 136, 137); format: biochemical; details: for Signal of dark peptide with NLpoly11S on its own: no NLpep114 (Example 137)
# Description: In FIG. 183A, 50 nM NLpoly11S was mixed with […] NLpep114 and 37.5 μM dark peptide (DP) candidate (Q-162, A-162, K-162 or E-162). NanoGlo® assay reagent (Promega Corporation) was added and incubated for 5 minutes. Luminescence was detected. In FIG. 183B, 50 nM NLpoly11S in assay buffer (PBS pH7+0.01% Prionex+1 mM DTT+0.005% Tergitol) was mixed with 7.5 μM NLpep114 (also in assay buffer) and variable amounts of dark peptide (DP) candidates Q-162 or K-162 (also in assay buffer). NanoGlo® assay reagent (Promega Corporation) was added and incubated for 5 minutes. Luminescence was detected on a Tecan Infinite F500 reader; 100 ms integration time; 5 min time point used.
# In FIG. 184A, 5 nM NLpoly11S was mixed with 500 nM NLpep114 and variable amounts of a dark peptide (DP) candidate Q-162 or A-162 (n=3). NanoGlo® assay reagent (Promega Corporation) was added and incubated for 5 minutes. Luminescence was detected.
# In FIG. 184B, 5 nM NLpoly11S in assay buffer was mixed with variable amounts of dark peptide (DP) candidates Q-162 or A-162 in assay buffer (no NLpep114)(n=3). NanoGlo® assay reagent (Promega Corporation) was added and incubated for 5 minutes. Luminescence was detected.
# [4] = system: wt Oplophorus 157-169 peptide; experiment: Relative specific activity in HEK293T lysates (Example 143); format: biochemical; details: averages of Vmax and Bmax normalized to NanoLuc
# Description: Each clone was inserted into pFN21A HaloTag® CMV Flexi® Vector (Promega G2821), and lysates were prepared as follows: 3 ml HEK293T cells that have been diluted to a concentration of 200,000 cells/ml (600,000 cells total) were plated into each well of a 6-well plate and grown overnight at 37° C. in a CO2 incubator. The following day transfection complexes of each DNA were prepared by combining […] of DNA, Opti-MEM® (Life Technologies 11058-021) to a final volume of 310 μl and 20 μl of FuGENE® HD (Promega E231a). The transfection complexes were incubated for 20 minutes and then 150 μl of each complex added in duplicate to cells. The cells were grown overnight 37° C. in a CO2 incubator. The following day, the cells were washed cells with DPBS (Life Technologies 14190-144), and 1 ml fresh DPBS added. Cells were frozen to lyse and then thawed for testing. Duplicate transfection reactions lysates were combined.
# In order to compare the specific activities of Nluc (full length enzyme) to wt Oplophorusl-156 and NLpoly11S in combination with wt Oplophorus 157-169 peptide (binary proteins), substrate titrations were run for all of the samples, but for the binary samples substrate titrations were run at multiple peptide concentrations. Using this format, it was possible to calculate a Vmax value for Nluc and both Vmax and Bmax values for NLpoly11S and wt Oplophorus 1-156. Three separate experiments were run using this format and Vmax and Bmax values were normalized to the Vmax of NanoLuc. Relative specific activities (calculated as averages of Vmax and Bmax) are normalized to NanoLuc.
# [5] = high purity (>95%) peptides, 5 nM NLpoly11S, 500 nM NLpep114 (Example 137)
molecule,measurement,setting,value
COc1cc2c(cc1-c1c(C)noc1C)ncc1[nH]c(=O)n([C@H](C)c3ccccn3)c12 [IBET-151],Time within which the decline in luminescence occurs,"BRD4/Histone H3.3; 0-500 nM IBET-151, time course",≤ 3 h
same,Effect on luminescence of NLpoly11S-BRD4 / Histone H3.3-NLpep114,"BRD4/Histone H3.3; 0 to 10 μM, 4 h at 37° C.",dose-dependent decline in luminescence
BC21: MVSGWRLFKKIS-GGSGGGGSGG-Fluc,Relative brightness of construct (Fluc and NLpep86 signals),HELA cells,brightest
BC26: MVSGWRLFKKIS-GGSGGGGSGG-Fluc-CP,Relative brightness of construct (Fluc and NLpep86 signals),HELA cells,least bright
DAB-GWALFKK ({Dabcyl′}-GWALFKK) [Dabcyl-GWALFKK],Background luminescence generated by NLpoly11S in the absence of other luminogenic peptide,NLpoly11S [1],reduce the background luminescence generated by NLpoly11S
GWALFKK,Background luminescence generated by NLpoly11S in the absence of other luminogenic peptide,NLpoly11S [1],reduce the background luminescence generated by NLpoly11S
"NLpep88: NLpep78 with Gly as 6th residue instead of Arg, HT fusion lysate (MNVSGWGLFKKISN; also: HT fusion (lysate))",Luminescence with NLpoly 5P,NLpoly 5P,no increase in luminescence above 5P alone at lower concentrations
NVSGWRLFKKISN [NLPep78],Binding affinity to NLpoly11S: synthetic vs N- or C-terminal HaloTag fusion,NLpoly11S [2],not found to change significantly
same,Bmax with NLpoly11S when NLPep at the C-terminus of HaloTag,NLpoly11S [2],reduced
NVTGYRLFKKISN [NLPep79],Binding affinity to NLpoly11S: synthetic vs N- or C-terminal HaloTag fusion,NLpoly11S [2],not found to change significantly
same,Bmax with NLpoly11S when NLPep at the C-terminus of HaloTag,NLpoly11S [2],reduced
VSGWALFKKIS [Ala-162],Inhibition of generation of luminescence by CP Nluc,[3],> 2 logs
same,Signal of dark peptide with NLpoly11S on its own,NLpoly11S and NLpep114; 5 nM NLpoly11S,subtle at best
same,Inhibition of binding between NLpoly11S and NLpep114,NLpoly11S and NLpep114; [5],dose-dependent
same,Inhibition of binding between NLpoly11S and NLpep114,"NLpoly11S and NLpep114; high purity (>95%) peptides, 5 nM NLpoly11S, 500 nM NLpep114 (Example 137), listed as Ala peptide",most potent as an inhibitor
VSGWQLFKKIS [Gln-162],Inhibition of generation of luminescence by CP Nluc,[3],> 1 logs
same,Signal of dark peptide with NLpoly11S on its own,NLpoly11S and NLpep114; 5 nM NLpoly11S,produces a signal on its own in a dose-dependent manner
same,Inhibition of binding between NLpoly11S and NLpep114,"NLpoly11S and NLpep114; array peptides, 50 nM NLpoly11S, 7.5 μM NLpep114 (Example 136)",dose-dependent
same,Inhibition of binding between NLpoly11S and NLpep114,NLpoly11S and NLpep114; [5],dose-dependent
VTGWALFEEIL,Luminescence relative to background (NLpoly11S alone; no peptide control),NLpoly11S [1],induce luminescence over background
VTGYALFEEIL,Luminescence relative to background (NLpoly11S alone; no peptide control),NLpoly11S [1],induce luminescence over background
"NanoLuc: full-length NanoLuc luciferase (Promega), SEQ ID NO: 2157 (protein) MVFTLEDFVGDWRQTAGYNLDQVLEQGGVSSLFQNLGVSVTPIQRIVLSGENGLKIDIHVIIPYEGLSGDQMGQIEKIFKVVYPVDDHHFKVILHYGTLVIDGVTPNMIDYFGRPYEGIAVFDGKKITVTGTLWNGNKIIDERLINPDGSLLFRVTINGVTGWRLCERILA",Relative specific activity (*with wt 157-169 peptide),[4],1.00
wt 1-156: Wild-Type Oplophorus Luciferase Residues 1-156 (protein) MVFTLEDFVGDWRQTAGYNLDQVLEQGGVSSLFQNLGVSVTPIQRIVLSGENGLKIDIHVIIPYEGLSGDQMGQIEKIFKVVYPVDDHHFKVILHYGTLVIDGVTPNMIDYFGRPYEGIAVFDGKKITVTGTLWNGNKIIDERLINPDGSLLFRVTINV,Relative specific activity (*with wt 157-169 peptide),[4],0.07*
